Experimental data as given in EP0119446A2, “Growth promoting aminophenylethyl amine derivatives” (BAYER AG, priority 1983, dated 1984).

Tested on: Ratten, weiblich
Experiment: Feeding trial in rats (feed intake, weight gain, feed conversion)
Type: in vivo, Ratten (SPF Wistar)
Details: n = 6
Description: (§1) Die Tiere wurden 2 Tage an die neuen Haltungsbedingungen adaptiert, wobei generell das Versuchsfutter ohne Wirkstoffzusatz verabreicht wurde. Am dritten Versuchstag wurden die Tiere randomisiert und anschließend die Versuchsgruppen so gebildet, daß sowohl die Mittelwerte als auch die Streuungen in den Körpergewichten zwischen den Gruppen gleich waren. Nach einer 5-tägigen Vorperiode wurde eine 8-tägige Hauptperiode durchgeführt, in denen Futteraufnahme, Zuwachs und Futterverwertung bestimmt wurden.
Es wurden folgende Behandlungen geprüft: • b 1) Negativkontrolle (n = 12) • b 2) 25 ppm (Wirkstoff Beispiel 12) (n = 6)
as §1, with “7-tägige” for “8-tägige”
Es wurden folgende Behandlungen geprüft: • b 1) Negativkontrolle (n = 12) • b 2) 0,2 ppm (Wirkstoff Beispiel 12) (n = 6) • b 3) 10 ppm (Wirkstoff Beispiel 12) (n = 6)
Es wurden folgende Behandlungen geprüft: • b 1) Negativkontrolle (n = 12) • b 2) 25 ppm (Wirkstoff Beispiel 2) (n = 6)
as §1, with “7-tägigen” for “5-tägigen”, “7-tägige” for “8-tägige”
Es wurden folgende Behandlungen geprüft: • b 1) Negativkontrolle (n = 24) • b 2) 25 ppm (Wirkstoff Beispiel 2) (n = 6)
Es wurden folgende Behandlungen geprüft: • b 1) Negativkontrolle (n = 12) • b 2) 0,2 ppm (Wirkstoff Beispiel 1) (n = 6) • b 3) 10 ppm (Wirkstoff Beispiel 1) (n = 6)

[1] = 25 ppm in feed, whole test period 13 Tage (5-day pre-period + 8-day main period), negative control 174
[2] = 25 ppm in feed, whole test period 13 Tage, negative control 5,06
[3] = 25 ppm in feed, whole test period 13 Tage, negative control 35,4
[4] = 0,2 ppm in feed, whole test period 12 Tage (5-day pre-period + 7-day main period), negative control 200
[5] = 0,2 ppm in feed, whole test period 12 Tage, negative control 4,88
[6] = 0,2 ppm in feed, whole test period 12 Tage, negative control 41,0
[7] = 10 ppm in feed, whole test period 12 Tage (5-day pre-period + 7-day main period), negative control 200
[8] = 10 ppm in feed, whole test period 12 Tage, negative control 4,88
[9] = 10 ppm in feed, whole test period 12 Tage, negative control 41,0

| SMILES | Futter-aufnahme [1] [g] | Futter-verwer-tung [2] | Zuwachs [3] | Futter-aufnahme (25 ppm in feed, whole test period 14 Tage (7-day pre-period + 7-day main period), negative control 225) [g] | Futter-verwer-tung (25 ppm in feed, whole test period 14 Tage, negative control 5,30) | Zuwachs (25 ppm in feed, whole test period 14 Tage, negative control 40,6) | Futter-aufnahme [4] [g] | Futter-verwer-tung [5] | Zuwachs [6] | Futter-aufnahme [7] [g] | Futter-verwer-tung [8] | Zuwachs [9] |
| --- | --- | --- | --- | --- | --- | --- | --- | --- | --- | --- | --- | --- |
| Cc1cc(NCC(O)c2cc(Cl)c(N)c(Cl)c2)ccc1Oc1ccc(S(=O)(=O)C(F)(F)F)cc1 (stereo not drawn) [Bsp. 2] | 180 | 4,85 g/g | 37,5 g | 233 | 4,88 g/g | 47,8 g | – | – | – | – | – | – |
| Cc1cc(NCC(O)c2cc(Cl)c(N)c(Cl)c2)ccc1Oc1ccc(SC(F)(F)F)cc1 (stereo not drawn) [Bsp. 1] | 184 | 4,23 g/g | 43,9 g | – | – | – | 204 | 4,25 g/g | 47,9 g | 206 | 4,46 g/g | 46,2 g |
| CC(C)C(C)[Si](C)(C)OC(CN(C(C)(C)C)[Si](C)(C)C(C)C(C)C)c1cc(Cl)c(N)c(Cl)c1 (stereo not drawn) [Bsp. 12] | 193 | 3,77 g/g | 51,9 g | – | – | – | 217 | 4,13 g/g | 52,5 g | 204 | 4,03 g/g | 50,7 g |
